Assay results taken from ChEMBL document CHEMBL1909046, “DrugMatrix in vitro pharmacology data”.

Key:
[1] = DRUGMATRIX: ATPase, Na+/K+ enzyme inhibition (substrate: ATP); assay type: tissue-based, Sus scrofa, Heart; conditions: Not Active = under 50% inhibition at 10 µM
[2] = target: 5-hydroxytryptamine receptor 6 (Homo sapiens, UniProt P50406); assay type: cell membranes, HeLa, Membrane; conditions: hela; further: in other assays of this panel Not Active means under 50% inhibition at 10 µM
[3] = target: Sodium-dependent dopamine transporter (Homo sapiens, UniProt Q01959); test: DRUGMATRIX: Dopamine Transporter radioligand binding (ligand: [125I] RTI-55); assay type: cell membranes, CHO-K1, Membrane; conditions: cho-k1; Not Active = under 50% inhibition at 10 µM
[4] = target: Melanocortin receptor 5 (Homo sapiens, UniProt P33032); assay type: cell membranes, Membrane; conditions: hek293; further: in other assays of this panel Not Active means under 50% inhibition at 10 µM
[5] = target: T1, Neuropeptide Y receptor type 1 (Homo sapiens, UniProt P25929); assay type: cell membranes, Membrane; conditions: sk-n-mc; further: in other assays of this panel Not Active means under 50% inhibition at 10 µM
T1 sequence (P25929 whole entry): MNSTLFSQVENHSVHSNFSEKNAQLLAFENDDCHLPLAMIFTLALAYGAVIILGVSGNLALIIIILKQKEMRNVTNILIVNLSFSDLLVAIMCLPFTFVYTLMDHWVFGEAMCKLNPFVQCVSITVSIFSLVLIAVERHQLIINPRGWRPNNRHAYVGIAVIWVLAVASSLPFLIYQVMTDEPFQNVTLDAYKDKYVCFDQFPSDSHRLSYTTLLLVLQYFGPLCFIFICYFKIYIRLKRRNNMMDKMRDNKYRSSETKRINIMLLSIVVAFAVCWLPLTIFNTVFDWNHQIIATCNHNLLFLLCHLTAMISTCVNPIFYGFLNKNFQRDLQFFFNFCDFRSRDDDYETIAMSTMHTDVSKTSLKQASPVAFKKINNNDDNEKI

[6] = target: Cytochrome P450 3A4 (Homo sapiens, UniProt P08684); conditions: bti-tn-5b1-4; further: in other assays of this panel Not Active means under 50% inhibition at 10 µM
[7] = target: T2, Estrogen receptor (Homo sapiens, UniProt P03372); conditions: sf9; further: in other assays of this panel Not Active means under 50% inhibition at 10 µM
T2 sequence (P03372 whole entry): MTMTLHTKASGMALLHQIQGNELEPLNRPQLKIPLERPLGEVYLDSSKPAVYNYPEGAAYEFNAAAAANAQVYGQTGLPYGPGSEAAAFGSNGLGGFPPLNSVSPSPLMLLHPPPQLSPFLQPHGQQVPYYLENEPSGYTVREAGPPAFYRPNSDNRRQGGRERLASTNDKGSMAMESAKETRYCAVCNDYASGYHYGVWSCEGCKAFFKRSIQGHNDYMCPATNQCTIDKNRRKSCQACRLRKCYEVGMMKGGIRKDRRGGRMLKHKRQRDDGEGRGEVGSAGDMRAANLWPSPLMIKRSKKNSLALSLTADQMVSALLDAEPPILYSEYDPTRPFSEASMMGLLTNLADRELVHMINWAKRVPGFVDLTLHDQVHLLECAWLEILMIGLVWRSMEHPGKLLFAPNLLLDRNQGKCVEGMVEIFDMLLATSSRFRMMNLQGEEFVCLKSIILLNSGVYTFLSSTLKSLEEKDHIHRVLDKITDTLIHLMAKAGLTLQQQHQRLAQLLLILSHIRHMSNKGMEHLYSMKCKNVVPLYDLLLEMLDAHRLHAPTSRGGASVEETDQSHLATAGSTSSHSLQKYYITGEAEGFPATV

Sequence of Cytochrome P450 3A4 (P08684 whole entry): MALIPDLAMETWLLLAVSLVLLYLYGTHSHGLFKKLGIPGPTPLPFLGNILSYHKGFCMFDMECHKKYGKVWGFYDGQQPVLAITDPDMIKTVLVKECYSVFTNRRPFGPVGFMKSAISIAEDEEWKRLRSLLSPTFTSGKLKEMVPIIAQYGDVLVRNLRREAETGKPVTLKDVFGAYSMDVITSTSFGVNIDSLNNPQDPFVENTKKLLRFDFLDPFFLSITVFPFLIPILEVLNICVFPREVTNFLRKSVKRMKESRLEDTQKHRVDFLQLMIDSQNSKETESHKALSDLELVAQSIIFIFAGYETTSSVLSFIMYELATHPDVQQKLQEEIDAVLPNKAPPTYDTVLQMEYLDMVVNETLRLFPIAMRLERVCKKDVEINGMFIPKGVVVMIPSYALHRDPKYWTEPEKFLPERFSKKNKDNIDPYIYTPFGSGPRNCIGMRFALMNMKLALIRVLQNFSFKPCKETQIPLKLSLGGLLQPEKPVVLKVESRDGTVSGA
Sequence of Melanocortin receptor 5 (P33032 whole entry): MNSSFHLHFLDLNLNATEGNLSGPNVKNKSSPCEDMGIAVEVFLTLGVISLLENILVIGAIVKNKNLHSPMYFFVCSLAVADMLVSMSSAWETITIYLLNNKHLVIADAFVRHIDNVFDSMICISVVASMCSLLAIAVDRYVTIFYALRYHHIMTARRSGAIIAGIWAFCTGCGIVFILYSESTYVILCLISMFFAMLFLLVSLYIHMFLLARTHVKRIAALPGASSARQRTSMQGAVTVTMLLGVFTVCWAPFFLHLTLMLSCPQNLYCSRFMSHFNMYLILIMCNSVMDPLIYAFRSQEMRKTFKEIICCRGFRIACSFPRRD
Sequence of 5-hydroxytryptamine receptor 6 (P50406 whole entry): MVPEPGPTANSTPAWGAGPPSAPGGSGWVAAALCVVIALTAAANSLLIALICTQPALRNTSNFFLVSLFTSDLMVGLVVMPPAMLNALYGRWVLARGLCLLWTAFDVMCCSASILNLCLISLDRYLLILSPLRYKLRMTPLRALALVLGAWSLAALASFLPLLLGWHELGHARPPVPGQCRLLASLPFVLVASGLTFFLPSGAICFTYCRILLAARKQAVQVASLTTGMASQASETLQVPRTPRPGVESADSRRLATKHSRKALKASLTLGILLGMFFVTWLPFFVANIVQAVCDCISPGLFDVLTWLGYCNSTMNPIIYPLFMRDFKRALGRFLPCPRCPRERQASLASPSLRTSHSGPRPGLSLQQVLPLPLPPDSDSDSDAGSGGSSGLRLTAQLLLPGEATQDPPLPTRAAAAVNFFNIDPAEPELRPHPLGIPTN
Sequence of Sodium-dependent dopamine transporter (Q01959 whole entry): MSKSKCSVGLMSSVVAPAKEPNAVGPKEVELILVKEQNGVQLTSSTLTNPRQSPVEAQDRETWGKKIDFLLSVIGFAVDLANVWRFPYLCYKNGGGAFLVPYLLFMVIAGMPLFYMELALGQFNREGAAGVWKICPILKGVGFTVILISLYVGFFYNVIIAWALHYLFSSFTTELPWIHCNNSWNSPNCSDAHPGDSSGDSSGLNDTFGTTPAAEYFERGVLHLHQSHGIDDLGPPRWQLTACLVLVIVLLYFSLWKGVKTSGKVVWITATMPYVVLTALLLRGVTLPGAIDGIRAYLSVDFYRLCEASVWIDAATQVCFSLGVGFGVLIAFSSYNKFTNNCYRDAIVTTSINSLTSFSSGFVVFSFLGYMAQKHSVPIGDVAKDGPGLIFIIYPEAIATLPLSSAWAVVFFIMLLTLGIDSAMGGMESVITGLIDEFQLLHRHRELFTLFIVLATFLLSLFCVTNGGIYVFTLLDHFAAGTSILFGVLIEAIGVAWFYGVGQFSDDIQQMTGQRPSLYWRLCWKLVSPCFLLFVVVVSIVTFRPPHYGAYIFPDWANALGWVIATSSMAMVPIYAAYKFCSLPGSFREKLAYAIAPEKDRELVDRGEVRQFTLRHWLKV

Cc1cc2cc3c(C)cc(=O)oc3c(C)c2o1 [TRIOXSALEN]
Not Active: IC50 [1] | Ki [1] | IC50 [2] | IC50 [3] | IC50 [4] | IC50 [5] | IC50 [6] | Ki [6] | IC50 [7]

CCCC(CCC)C(=O)O [VALPROIC ACID]
Not Active: IC50 [1] | Ki [1] | IC50 [2] | IC50 [3] | IC50 [4] | IC50 [5] | IC50 [6] | Ki [6] | IC50 [7]

CADMIUM DICHLORIDE
Not Active: IC50 [1] | Ki [1] | IC50 [2] | Ki [2] | IC50 [3] | Ki [3] | IC50 [4] | Ki [4] | IC50 [5] | Ki [5] | IC50 [6] | Ki [6] | IC50 [7] | Ki [7]
